Laboratory results taken from patent US11718593B2, “2,5-aryl-thiazole analogs for the treatment of neurodegenerative diseases” (Southern Research Institute, priority 2018, dated 2023).
Values after ≈ are worked out from the molar mass of the structure shown. Like-named read-outs stand apart in the source and are kept apart here.

How the values were obtained:
[1] = system: NF-κB; assay: High throughput assay for NF-κB reporter activity (luciferase, stably transfected SH-SY5Y cells); type: cell-based, human; details: for maximal fold induction: 24 h, read-out: Emax
Experimental: SH-SY5Y human neuroblastoma cell line was obtained from the American Tissue Culture collection (ATCC). A commercially available expression vector containing the NF-kB promoter enhancer region driving the firefly luciferase gene expression and a second plasmid containing the gene conferring resistance to blasticidin were used in a dual transfection approach to obtain a stable cell line. SH-SY5Y cells stably transfected with pNF-κB-luc/pEF6 were plated at 8,000 per well in a volume of 40 μl DMEM in either Corning white opaque, 384-well plates (Cat. No. 3570, Corning, Inc., Corning, N.Y.) or Corning black clear bottom, 384-well plates (Cat. No. 3712, Corning, Inc., Corning, N.Y.) and treated with test compounds for 24 hr at 37° C. Luciferase activity was measured as a reporter of NF-kB activation using the Bright-Glo Luciferase assay kit (Cat. No. E2620, Promega, Madison, Wis.) according to the manufacturer's instructions. Cell viability was measured using the CellTiter-Glo Luminescent Cell Viability assay kit (Cat. No. G7572, Promega, Madison, Wis.) according to the manufacturer's instructions. Briefly, cells were equilibrated at room temperature for 30 min prior to the addition of Bright-Glo to the white opaque plates or CellTiter-Glo to the black clear bottom plates. A volume of assay buffer equal to the volume of cell media was added to each well and incubated for five min to allow complete cell lysis. All procedures were performed in the dark. Luminescence was measured by the Synergy4 Multi-detection microplate reader (BioTek, Winooski, Vt.) within 15 min of lysis.

[2] = Bioavailability / PK study (IV and PO); type: in vivo, mouse; details: for oral bioavailability: I.V./P.O., 1 and 5 mg/kg; for half-life: read-out: plasma half-life (t1/2)
Experimental: The experiments will involve the administration of compounds to 5-6 week old CD1 male mice. Mice are dosed by either a 1 mg/kg IV bolus or 5 mg/kg oral gavage. Blood samples are collected by cardiac puncture at 0, 0.25, 0.5, 1, 2, 4, 6, 8, 12, and 24 hrs. There will be three mice per time point. Plasma concentration over time will be determined by LC/MS from which the standard PK parameters of clearance, volume of distribution, t1/2 and % F can be derived using WinNoLin software (Pharsight Inc.). This will require a total of 60 mice per compound. Plasma will be analyzed by reverse phase chromatography with MS/MS detection operating in the positive ion mode using multiple reaction monitoring using an internal standard and Applied Biosystems Analyst 1.4 software. Peak time (when maximum plasma drug concentration occurs), peak drug level [approximate maximum concentrations of drug in plasma (Cmax)] and tin for drug elimination will be estimated for each tested compound. Bioavailability (F) will be calculated from the ratio of AUCPO/AUCIV and expressed as a percentage. To determine levels in brain, six additional mice will be dosed with 1 mg/kg I.V. and sacrificed at 0.25 and 1 hr. Brain and spinal cord samples will be collected at these two time points, quick frozen in an ice box and kept at −75±15° C. All samples will be weighed and homogenized with phosphate buffered saline (PBS) by brain weight (g) to PBS volume (mL) ratio 1:3 before analysis. The actual concentration is the detected value multiplied by the dilution factor.

[3] = system: MDR/MDCK cells; assay: Permeability in MDR/MDCK cells; type: in vitro ADME, Canine
From the text: (§1) A standard panel of in vitro ADME assays will be utilized to assess drug-like properties of compounds and to inform subsequent in vivo PK studies. These assays include: (a) Permeability: MDCK (Madin Darby Canine Kidney) cells transfected with the MDR1 gene encoding for the multi-drug resistant transporter (Pgp) will be utilized to determine a compound's ability to permeate the membrane in apical to basolateral (A-B) and basolateral to apical (B-A) directions. The derived apparent permeability coefficient (Papp) provides an estimate of passive permeability; a ratio of Papp in the B-A/A-B direction gives an estimate of transporter efflux; (b) Solubility: Kinetic solubility is an important parameter for accurate determinations of the dose response. This is estimated using the shake flask method with a μSol Explorer (PION, Billerica, Mass.) at pH 7.4. Compounds are added as a DMSO solution to buffer. The average of two determinations at pH 7.4 will be reported. Solubility at pH 7.4 is relevant for in vitro assays; (c) Metabolic Stability: The potential for a high metabolic clearance compound is estimated using a liver microsome assay. […] The disappearance of the parent molecule is measured by liquid chromatography/mass spectroscopy (LC/MS) detection. […]

[4] = Solubility; type: physicochemical; details: buffer, pH 7.4, aqueous buffer, kinetic from dmso stock
From the text: as §1

[5] = system: SOD2; assay: SOD2 mRNA expression by quantitative RT-PCR in NSC-34 neuroblastoma cells; type: cell-based; details: mouse NSC-34, 1 μM, 24 h (FIG. 1B)
[6] = system: inhibitory κB; assay: Inhibitory κB expression levels; type: cell-based
[7] = system: SOD1 G93A transgenic mouse; assay: Efficacy in the SOD1 G93A transgenic mouse model of ALS; type: in vivo; details: for progression to a score of 4: 25 mg/kg I.P. daily from day 96, 4-point severity score; for survival: SOD1 G93A males, 25 mg/kg I.P. daily from day 96
Experimental: Briefly, Congenic SOD1-G93A mice were dosed with up to 50 mg/kg of both compounds (IP) to evaluate any toxicity issues prior to initiating the efficacy study. Also, mice administered 20 mg of each compound had high plasma and brain levels at 30 minutes. Next, individually genotyped SOD1-G93A mice (Prize4life-Jackson Labs) were treated with each compound (25 mg/kg, IP) at disease onset (day 96). The treatment extended survival, reduced weight loss and improved the neurologic symptoms. […] Data document a 66% and an 81% lifespan extension for the compounds, respectively, at 50% survival in male mice. […] The average weight within the groups before the treatment was similar.
While compounds which increase SOD2 expression and activity have potential utility in a number of neurodegenerative diseases involving ROS overproduction, it was decided to test these two compounds in a mouse model of ALS for a variety of reasons, including the evidence for oxidative stress in ALS (described above), the ability of these compounds to induce SOD2 in a motor neuron-like mouse cell line (NSC-34; FIG. 1B), and the availability of a mouse model with dysfunction in SOD1 (human SOD1 G93A transgenic mouse; Jackson Laboratory). The pilot experiment involved treating six wildtype and six SOD1 G93A transgenic males on the C57BL/6 background with 25 mg/kg compound no. 1 and compound no. 2 I.P. daily, beginning around disease onset (day 96; FIG. 2A and FIG. 2B). Mouse survival and behavioral phenotype were observed based on guidelines from “Working with ALS mice: JAX handbook,” using a 4-point severity score (FIG. 2C).
Referring to FIG. 2A and FIG. 2B, SOD1 G93A mice received daily IP injections of saline (control) or compounds (25 mg/kg) starting on day 96.

[8] = system: SOD2; assay: SOD2 protein expression and SOD activity in primary rat cortical cultures; type: cell-based; details: for SOD2 protein expression: primary rat cortical cultures (FIG. 1C); for SOD activity: primary rat cortical cultures (FIG. 1D)
From the text: N=3-6/group, mean+/−SEM, *p<0.05, **p<0.01, 2-way ANOVA, post-hoc t-test.

[9] = system: SOD2; assay: SOD2 mRNA expression by quantitative RT-PCR in SH-SY5Y neuroblastoma cells; type: cell-based; details: human SH-SY5Y, 1 μM, 6 h (FIG. 1A)
[10] = Plasma and brain levels in SOD1 G93A mice; type: in vivo, mouse; details: 50 mg/kg I.P., within 30 minutes
Experimental: Before the studies above were initiated, congenic SOD1 G93A mice were dosed with 50 mg/kg of compound no. 1 and compound no. 2 via I.P. injection to rule out any toxicity issues prior to initiating the efficacy study (FIG. 2A-C).

[11] = system: glutamate-induced toxicity in primary cultures; assay: Neuroprotection in vitro; type: cell-based
[12] = system: SOD2; assay: SOD2 mRNA expression in vitro (FIG. 5); type: cell-based; details: FIG. 1A-D
From the text: While a number of new compounds derived from Ataluren and compound no. […] 1 and no. 2. […] Whether these and other compounds are capable of inducing SOD2 mRNA and protein activity in vitro and in vivo, in addition to their ability to protect neurons from hydrogen peroxide or glutamate-induced cell death (as in Carri et al. (2015) Frontiers in cellular neuroscience 9:41) and dysfunction/cell death in the SOD1 G93A transgenic mouse model will also be evaluated.

[13] = Table 2, unit not given (μM for nos. 3 and 20)
[14] = Homo sapiens, SH-SY5Y, Table 2, no unit printed (text: fold)
[15] = Homo sapiens, SH-SY5Y, Table 2, unit not given (μM for nos. 3 and 20), read-out: EC50
[16] = Homo sapiens, SH-SY5Y, read-out: EC50

In the case of `O=C(NC1CC1)c1cccc(-c2csc(Nc3ccccc3F)n2)c1` [Compound 28], the EC50 [1, 13] is reported as “Inactive”.

`Fc1ccccc1Nc1nc(-c2cccc(C(F)(F)F)c2)cs1` [Compound 16] showed a maximal fold induction [1, 14] of 16 and an EC50 [1, 15] of 9.35 µM.

`Fc1ccccc1Nc1nc(-c2ccc(OCC(F)(F)F)cc2)cs1` [Compound 24] showed an EC50 [1, 15] of over 10 µM.

With `O=C(O)c1cccc(-c2noc(-c3ccccc3F)n2)c1` [Ataluren, reference compound] the induction [1] was 9-10 fold and the EC50 [1, 16] was 1.5 µM.

`Fc1ccccc1Nc1nc(-c2ccc(C(F)(F)F)cc2)cs1` [Compound 26] gave an EC50 [1, 15] of over 10 µM.

Work on `Fc1ccccc1Nc1nc(-c2cccc(Cl)c2)cs1` [Compound 17] yielded a maximal fold induction [1, 14] of 14.5 and an EC50 [1, 15] of over 10 µM.

In the case of `NC(=O)c1cccc(-c2csc(Nc3ccccc3F)n2)c1` [Compound 30], the EC50 [1, 13] is reported as “Inactive”.

Work on “N-(4-(2-((2-Fluorophenyl)amino)thiazol-4-yl)benzyl)acetamide [Compound 20]” yielded an Emax [1] of over 20 fold, an Emax ([1]; Table 2, no unit printed (text: fold)) of 27.58 and an EC50 ([1]; Table 2, unit not given (μM for nos. 3 and 20), read-out: EC50) of 3.75 µM. For the same compound, the EC50 ([1]; read-out: EC50) was 4 µM.

For `N#Cc1ccc(-c2csc(Nc3ccccc3F)n2)cc1` [Compound 27], the EC50 [1, 15] was over 10 µM.

In the case of `Fc1ccccc1Nc1nc(-c2ccc(Cl)c(Cl)c2)cs1` [Compound 29], the EC50 [1, 15] is reported as over 10 µM.

`N#Cc1cccc(-c2csc(Nc3ccccc3F)n2)c1` [Compound 25] showed an EC50 [1, 15] of over 10 µM.

Compound `Fc1ccc(-c2csc(Nc3ccccc3F)n2)cc1F` [Compound 19] has a maximal fold induction [1, 14] of 18.5 and an EC50 [1, 15] of over 10 µM.

For `Cc1noc(-c2cccc(-c3csc(Nc4ccccc4F)n3)c2)n1` [Compound 31], the EC50 [1, 13] was “Inactive”.

In the case of `O=C(O)c1cccc(-c2csc(Nc3ccccc3F)n2)c1` [Compound 3, 3-(2-((2-Fluorophenyl)amino)thiazol-4-yl)benzoic acid], the Cmax ([2]; male, CD1, mouse, plasma, oral, 5 mg/kg dose) is reported as 100 ng/mL, the bioavailability ([2]; male, CD1, mouse, plasma, 1 mg/Kg IV and 5 mg/Kg po, read-out: orally bioavailable) is reported as 26% and the efflux [3] is reported as “no efflux was observed”. The permeability [3] was “highly permeable”, the EC50 [1, 15] was 0.84 µM and the EC50 [1, 16] was about 1 µM. The solubility [4] was 80 µM (≈ 25.1 µg/mL).

With `O=C(/C=C\Nc1ccccc1Br)c1ccc2c(c1)OCO2` [Compound 1, (Z)-1-(Benzo[d][1,3]dioxol-5-yl)-3-((2-bromophenyl)amino)Prop-2-en-1-one] the “SOD2 mRNA expression” value [5] was “induce SOD2”, the oral bioavailability [2] was “lack of oral bioavailability” and the half-life ([2]; male, CD1, mouse, plasma) was under 5 min. The “inhibitory κB expression levels” value [6] was “do not effect inhibitory κB expression levels”, the “progression to a score of 4” value [7] was “delayed” and the survival [7] was “significantly prolonged”. The SOD2 protein expression [8] was “induce SOD2”, the SOD activity [8] was “increase” and the “SOD2 mRNA expression” value [9] was “induce SOD2”. The “plasma and brain levels” value [10] was “substantial plasma and brain levels”, the neuroprotection in vitro [11] was “neuroprotective in vitro” and the “SOD2 mRNA expression increase” value [12] was 2 fold. The maximal fold induction [1, 14] was 26 and the EC50 [1, 15] was 0.5 µM.

For `Cc1cccnc1Nc1nc(-c2ccccn2)cs1` [Compound 2, N-(3-Methylpyridin-2-yl)-4-(pyridin-2-yl)thiazol-2-amine], the “SOD2 mRNA expression” value [5] was “induce SOD2”, the oral bioavailability [2] was “lack of oral bioavailability” and the half-life ([2]; male, CD1, mouse, plasma) was under 5 min. The “inhibitory κB expression levels” value [6] was “do not effect inhibitory κB expression levels”, the “progression to a score of 4” value [7] was “delayed” and the survival [7] was “significantly prolonged”. For the same compound, the SOD2 protein expression [8] was “induce SOD2”, the SOD activity [8] was “increase” and the “SOD2 mRNA expression” value [9] was “induce SOD2”. For the same compound, the “plasma and brain levels” value [10] was “substantial plasma and brain levels”, the neuroprotection in vitro [11] was “neuroprotective in vitro” and the “SOD2 mRNA expression increase” value [12] was 2 fold. The maximal fold induction [1, 14] was 40 and the EC50 [1, 15] was 0.21 µM.

In the case of `Fc1ccc(-c2csc(Nc3ccccc3F)n2)cc1` [Compound 43], the EC50 [1, 13] is reported as “Inactive”.

`CC(C)(O)c1cccc(-c2csc(Nc3ccccc3F)n2)c1` [Compound 21] showed a maximal fold induction [1, 14] of 18.9 and an EC50 [1, 15] of over 10 µM.
